#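 Cultured in 96-well plates, cells were exposed to test compound for 48 hours across five concentrations. Definition used: TGI = concentration required for complete inhibition of growth.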
# Experiments:
# Assay in all cases: NCI tumour cell line growth inhibition, 48 h
# 786-0 renal = system: 786-0 renal
# A549 NSCLC = system: A549 NSCLC
# ACHN renal = system: ACHN renal
# CAKI-1 renal = system: CAKI-1 renal
# CCRF-CEM leukemia = system: CCRF-CEM leukemia
# COLO 205 colon = system: COLO 205 colon
# DLD-1 colon = system: DLD-1 colon
# DMS 114 small cell lung = system: DMS 114 small cell lung
# DMS 273 small cell lung = system: DMS 273 small cell lung
# EKVX NSCLC = system: EKVX NSCLC
# HCT-116 colon = system: HCT-116 colon
# HCT-15 colon = system: HCT-15 colon
# HL-60(TB) leukemia = system: HL-60(TB) leukemia
# HOP-18 NSCLC = system: HOP-18 NSCLC
# HOP-62 NSCLC = system: HOP-62 NSCLC
# HOP-92 NSCLC = system: HOP-92 NSCLC
# HT29 colon = system: HT29 colon
# IGROV1 ovarian = system: IGROV1 ovarian
# K-562 leukemia = system: K-562 leukemia
# KM12 colon = system: KM12 colon
# KM20L2 colon = system: KM20L2 colon
# LOX IMVI melanoma = system: LOX IMVI melanoma
# LXFL 529 NSCLC = system: LXFL 529 NSCLC
# M14 melanoma = system: M14 melanoma
# MOLT-4 leukemia = system: MOLT-4 leukemia
# NCI-H226 lung = system: NCI-H226 lung
# NCI-H23 lung = system: NCI-H23 lung
# NCI-H460 lung = system: NCI-H460 lung
# NCI-H522 lung = system: NCI-H522 lung
# OVCAR-3 ovarian = system: OVCAR-3 ovarian
# OVCAR-4 ovarian = system: OVCAR-4 ovarian
# OVCAR-5 ovarian = system: OVCAR-5 ovarian
# OVCAR-8 ovarian = system: OVCAR-8 ovarian
# RPMI-8226 leukemia = system: RPMI-8226 leukemia
# RXF 393 renal = system: RXF 393 renal
# RXF-631 renal = system: RXF-631 renal
# SF-268 CNS = system: SF-268 CNS
# SF-295 CNS = system: SF-295 CNS
# SF-539 CNS = system: SF-539 CNS
# SK-MEL-2 melanoma = system: SK-MEL-2 melanoma
# SK-MEL-28 melanoma = system: SK-MEL-28 melanoma
# SK-MEL-5 melanoma = system: SK-MEL-5 melanoma
# SK-OV-3 ovarian = system: SK-OV-3 ovarian
# SN12C renal = system: SN12C renal
# SNB-19 CNS = system: SNB-19 CNS
# SNB-75 CNS = system: SNB-75 CNS
# SR leukemia = system: SR leukemia
# SW-620 colon = system: SW-620 colon
# TK-10 renal = system: TK-10 renal
# U251 CNS = system: U251 CNS
# UACC-257 melanoma = system: UACC-257 melanoma
# UACC-62 melanoma = system: UACC-62 melanoma
# UO-31 renal = system: UO-31 renal
# XF 498 CNS = system: XF 498 CNS
# A498 renal = system: A498 renal
# HCC-2998 colon = system: HCC-2998 colon
# M19-MEL melanoma = system: M19-MEL melanoma
# SNB-78 CNS = system: SNB-78 CNS
smiles,measurement,setting,value
N#CC(C#N)=CSc1ccccc1,TGI,786-0 renal,34.5 µM
same,TGI,A549 NSCLC,> 100 µM
same,TGI,ACHN renal,> 100 µM
same,TGI,CAKI-1 renal,74.1 µM
same,TGI,CCRF-CEM leukemia,> 100 µM
same,TGI,COLO 205 colon,55.3 µM
same,TGI,DLD-1 colon,63.3 µM
same,TGI,DMS 114 small cell lung,43 µM
same,TGI,DMS 273 small cell lung,65.4 µM
same,TGI,EKVX NSCLC,> 100 µM
same,TGI,HCT-116 colon,76.3 µM
same,TGI,HCT-15 colon,> 100 µM
same,TGI,HL-60(TB) leukemia,> 100 µM
same,TGI,HOP-18 NSCLC,> 100 µM
same,TGI,HOP-62 NSCLC,> 100 µM
same,TGI,HOP-92 NSCLC,> 100 µM
same,TGI,HT29 colon,98.2 µM
same,TGI,IGROV1 ovarian,35.7 µM
same,TGI,K-562 leukemia,> 100 µM
same,TGI,KM12 colon,> 100 µM
same,TGI,KM20L2 colon,> 100 µM
same,TGI,LOX IMVI melanoma,26 µM
same,TGI,LXFL 529 NSCLC,> 100 µM
same,TGI,M14 melanoma,66.8 µM
same,TGI,MOLT-4 leukemia,> 100 µM
same,TGI,NCI-H226 lung,51.2 µM
same,TGI,NCI-H23 lung,> 100 µM
same,TGI,NCI-H460 lung,> 100 µM
same,TGI,NCI-H522 lung,24.5 µM
same,TGI,OVCAR-3 ovarian,> 100 µM
same,TGI,OVCAR-4 ovarian,> 100 µM
same,TGI,OVCAR-5 ovarian,68.9 µM
same,TGI,OVCAR-8 ovarian,37.1 µM
same,TGI,RPMI-8226 leukemia,> 100 µM
same,TGI,RXF 393 renal,45.2 µM
same,TGI,RXF-631 renal,> 100 µM
same,TGI,SF-268 CNS,54.1 µM
same,TGI,SF-295 CNS,> 100 µM
same,TGI,SF-539 CNS,42.3 µM
same,TGI,SK-MEL-2 melanoma,72.3 µM
same,TGI,SK-MEL-28 melanoma,81.1 µM
same,TGI,SK-MEL-5 melanoma,> 100 µM
same,TGI,SK-OV-3 ovarian,> 100 µM
same,TGI,SN12C renal,59.8 µM
same,TGI,SNB-19 CNS,> 100 µM
same,TGI,SNB-75 CNS,74.8 µM
same,TGI,SR leukemia,> 100 µM
same,TGI,SW-620 colon,> 100 µM
same,TGI,TK-10 renal,> 100 µM
same,TGI,U251 CNS,52.4 µM
same,TGI,UACC-257 melanoma,> 100 µM
same,TGI,UACC-62 melanoma,82.2 µM
same,TGI,UO-31 renal,39.5 µM
same,TGI,XF 498 CNS,> 100 µM
CCN(CC)CCNC(=O)c1cccc2cc3ccccc3nc12,TGI,786-0 renal,32 µM
same,TGI,A498 renal,22.2 µM
same,TGI,A549 NSCLC,> 100 µM
same,TGI,ACHN renal,22.3 µM
same,TGI,CAKI-1 renal,> 100 µM
same,TGI,CCRF-CEM leukemia,41.3 µM
same,TGI,COLO 205 colon,20.2 µM
same,TGI,DLD-1 colon,20.7 µM
same,TGI,DMS 114 small cell lung,19.2 µM
same,TGI,DMS 273 small cell lung,24.3 µM
same,TGI,EKVX NSCLC,41.6 µM
same,TGI,HCC-2998 colon,25.9 µM
same,TGI,HCT-116 colon,21.8 µM
same,TGI,HCT-15 colon,32.5 µM
same,TGI,HL-60(TB) leukemia,24.4 µM
same,TGI,HOP-18 NSCLC,88.5 µM
same,TGI,HOP-62 NSCLC,36.9 µM
same,TGI,HOP-92 NSCLC,27.8 µM
same,TGI,HT29 colon,35 µM
same,TGI,IGROV1 ovarian,60.7 µM
same,TGI,K-562 leukemia,> 100 µM
same,TGI,KM12 colon,36.6 µM
same,TGI,LOX IMVI melanoma,19.2 µM
same,TGI,M14 melanoma,21.7 µM
same,TGI,M19-MEL melanoma,16.6 µM
same,TGI,MOLT-4 leukemia,7.95 µM
same,TGI,NCI-H226 lung,15.9 µM
same,TGI,NCI-H460 lung,11.6 µM
same,TGI,OVCAR-3 ovarian,61.5 µM
same,TGI,OVCAR-5 ovarian,27.7 µM
same,TGI,OVCAR-8 ovarian,> 100 µM
same,TGI,RXF 393 renal,10.7 µM
same,TGI,RXF-631 renal,32.8 µM
same,TGI,SF-268 CNS,28.2 µM
same,TGI,SF-295 CNS,37.1 µM
same,TGI,SF-539 CNS,16.9 µM
same,TGI,SK-MEL-2 melanoma,19.9 µM
same,TGI,SK-MEL-28 melanoma,23.1 µM
same,TGI,SK-MEL-5 melanoma,17.1 µM
same,TGI,SK-OV-3 ovarian,37.9 µM
same,TGI,SN12C renal,51.4 µM
same,TGI,SNB-19 CNS,64.7 µM
same,TGI,SNB-75 CNS,21.6 µM
same,TGI,SNB-78 CNS,57 µM
same,TGI,SW-620 colon,> 100 µM
same,TGI,TK-10 renal,31.8 µM
same,TGI,U251 CNS,81.5 µM
same,TGI,UACC-62 melanoma,15.9 µM
same,TGI,UO-31 renal,22.1 µM
